The conditions of data set [1]: for Observations: pH 6.5. Here is the method: The polymer is a poorly aqueous soluble non-ionizable cellulosic polymer. […] An appropriate PBS solution is an aqueous solution comprising 20 mM sodium phosphate (Na2HPO4), 47 mM potassium phosphate (KH2PO4), 87 mM NaCl, and 0.2 mM KCl, adjusted to pH 6.5 with NaOH. A test to determine whether the polymer is insoluble may be performed as follows. The polymer is initially present in bulk powder form with average particle sizes of greater than about 1 micron. The polymer alone is administered at a concentration of 0.2 mg/mL to the PBS solution and stirred for approximately 1 hour at room temperature. Next, a nylon 0.45 μm filter is weighed, and the polymer solution is filtered. The filter is dried overnight at 40° C., and weighed the following morning. The amount of polymer dissolved is calculated from the amount of polymer added to the PBS solution minus the amount of polymer remaining on the filter (mg). […] These polymers were evaluated using the following procedure to determine their aqueous solubility. First, 0.2 mg/mL of the polymer is added to a PBS solution consisting of 20 mM Na2HPO4, 47 mM KH2PO4, 87 mM NaCl, and 0.2 mM KCl, adjusted to pH 6.5 with NaOH. The polymer is stirred in the PBS solution for approximately 1 hour at room temperature. Next, the polymer solution is filtered through a nylon 0.45 μm filter that had been weighed dry prior to filtration. The filter is dried overnight at 40° C., and weighed the following morning. The amount of soluble polymer is calculated from amount of polymer added to form the polymer solution minus the amount of polymer remaining on the filter.

The nature of data set [2]: Solubility of drug in water. In kind it is physicochemical.
Data set [3] in a line: Solubility of drug in model fasted duodenal (MFD) solution. The format is physicochemical. The settings on record: fassgf or other biorelevant.
The nature of a further data set: Log P. The settings on record: octanol/water. The format is physicochemical. From the text:
The first property of hydrophobic drugs is that they are extremely hydrophobic. Log P, defined as the base 10 logarithm of the ratio of the drug solubility in octanol to the drug solubility in water, is a widely accepted measure of hydrophobicity. By “extremely hydrophobic” is meant that the Log P value of the drug is at least 4.0, preferably at least 4.5, and most preferably at least 5.0. Log P may be measured experimentally or calculated using methods known in the art. When using a calculated value for Log P, the highest value calculated using any generally accepted method for calculating Log P is used. Calculated Log P values are often referred to by the calculation method, such as C log P, A log P, and M log P. The Log P may also be estimated using fragmentation methods, such as Crippen's fragmentation method (27 J. Chem. Inf. Comput. Sci. 21 (1987)); Viswanadhan's fragmentation method (29 J. Chem. Inf. Comput. Sci. 163 (1989)); or Broto's fragmentation method (19 Eur. J. Med. Chem.-Chim. Theor. 71 (1984). Preferably the Log P value is calculated by using the average value estimated using Crippen's, Viswanadhan's, and Broto's fragmentation methods.

In brackets after ≈: the same amount, converted by molar mass.

For the compound Cellulose Acetate, in data set [1], the “Soluble at pH 6.5” value is listed as 0.03 mg/mL and the Observations result is given as “Fine particle”. A word on the solubility: it is how much of the substance goes into solution per volume. Read a low solubility as a poorly soluble substance. For the compound `CCOC(=O)N1c2ccc(C(F)(F)F)cc2[C@@H](N(Cc2cc(C(F)(F)F)cc(C(F)(F)F)c2)C(=O)OC)C[C@H]1CC` [Torcetrapib, [2R,4S]4-[(3,5-bis-trifluoromethyl-benzyl)-methoxycarbonyl-amino]-2-ethyl-6-trifluoromethyl-3,4-dihydro-2H-quinoline-1-carboxylic acid ethyl ester], the solubility in data set [2] is under 0.1 µg/mL. For `Cc1ccc(-c2cc(C(F)(F)F)nn2-c2ccc(S(N)(=O)=O)cc2)cc1` [Drug 3, 4-[5-(4-methylphenyl)-3-(trifluoromethyl)-1H-pyrazol-1-yl]benzenesulfonamide, reference compound], the solubility in data set [3] is about 40 µg/mL (≈ 105 µM).

As usually defined, the logP is a log measure of how a compound divides between an organic and an aqueous phase. Lower therefore signals lower lipophilicity. Compound `Cc1onc(-c2ccccc2)c1-c1ccc(S(N)(=O)=O)cc1` [Drug 1, 4-(5-methyl-3-phenyl-4-isoxazolyl)benzenesulfonamide] had a lipophilicity (logP) in the data set “Log P” of about 3. Moreover, in data set [2], the solubility is about 10 µg/mL (≈ 31.8 µM). Regarding `CC[C@@H]1C[C@H](N(Cc2cc(C(F)(F)F)cc(C(F)(F)F)c2)C(C)=O)c2cc(C(F)(F)F)ccc2N1C(=O)OC(C)C` [Drug 2, [2R,4S]-4-[acetyl-(3,5-bis-trifluoromethyl-benzyl)-amino]-2-ethyl-6-trifluoromethyl-3,4-dihydro-2H-quinoline-1-carboxylic acid isopropyl ester], the solubility in data set [3] is about 11 µg/mL (≈ 18.4 µM). In the case of Ethylcellulose, in data set [1], the “Soluble at pH 6.5” value is under 0.001 mg/mL and the Observations entry is “Fine particle”.

These data come from patent US9545384B2, “Nanoparticles comprising drug, a non-ionizable cellulosic polymer and tocopheryl polyethylene glocol succinate” (Bend Research, Inc., priority 2007, dated 2017).
